Measured values from PubChem BioAssay AID602210 (Sanford-Burnham Center for Chemical Genomics, 2012).
Calls of active or inactive are those of the source. The rule behind the calls is not given here.

Assay: modulators of 2-deoxyglucose-induced H9c2 death, dose response, myocardial damage modulator project, cell-based, ATPlite luminescence, rat, set 2 (AID 602210)
Conditions: H9c2 rat cardiomyoblasts, 2-deoxyglucose-induced death, 2 h

Structure (SMILES)	IC50
CC(C)(C)NC(=O)c1cc(NC(=O)c2cccs2)cc(NC(=O)c2cccs2)c1	15.7 µM (inactive)
O=C(c1cc2nc(-c3ccccc3)cc(-c3ccccc3)n2n1)N1CCN(C(=O)c2ccco2)CC1	10.3 µM (inactive)
Cc1ncc(CO)c2c1Oc1nc(-c3ccccc3)nc(SCC(=O)N3CCCCC3)c1C2	> 79 µM (inactive)
COc1ccc(-n2c(/C=C/c3ccc(O)c(OC)c3)nc3ccccc3c2=O)cc1	8.14 µM
CCOC(=O)C1CCN(c2cc3c(cc2NC(=O)c2ccccc2Cl)n(C)c(=O)n3C)CC1	15.2 µM (inactive)
COc1cc2[nH]c(=O)n3nc(-c4ccccc4)nc3c2cc1OC	12.1 µM (inactive)
CC12CCC3C(CCC4CC(O)CCC43C)C1CC(O)C2 (stereo not given)	10.4 µM (inactive)
COc1cc(NC(=O)c2ccco2)c(OC)cc1NC(=O)c1cc(OC)c(OC)c(OC)c1	7.97 µM
CCN(C[C@H]1N[C@@](CC)(C(=O)OC)[C@H]2C(=O)N(Cc3ccccc3)C(=O)[C@@H]12)C(=O)c1ccc(C(C)(C)C)cc1	3.95 µM
COC(=O)c1cc2c(-c3ccccc3)cc3ccccn3c-2c1C(=O)OC	12.7 µM (inactive)
COc1cccc(C(=O)CSc2nnc(-c3cc(OC)c(OC)c(OC)c3)o2)c1	> 79 µM (inactive)
COc1ccc(OC)c(/C=N/Nc2nncn2/N=C/c2cc(OC)ccc2OC)c1	> 79 µM (inactive)
O=c1oc2ccc3ccccc3c2cc1-c1nnc(-c2ccccc2)o1	> 79 µM (inactive)
CN1CCc2nc3ccccc3c(C(=O)OCC(=O)N(CCC#N)c3ccccc3)c2C1	> 79 µM (inactive)
CCOCc1c(C(=O)NC2=Nc3ccccc3NC(CC)=C2C(=O)OCC)oc2ccccc12	4.85 µM
COc1ccc(-c2cnc3c(NC=O)cc(-c4cccc(NS(C)(=O)=O)c4)cn23)cc1OC	13.4 µM (inactive)
COC(=O)c1ccc(C(=O)OC)c(NC(=O)COC(=O)C23CC4CC(CC(O)(C4)C2)C3)c1	10.5 µM (inactive)
CC1(c2ccccc2)NC(=O)N(CC(=O)Nc2cccc(/C=C/c3ccccn3)c2)C1=O (stereo not given)	21.8 µM (inactive)
Nc1cc2[nH]c(=O)c3ccccc3c2cc1[N+](=O)[O-]	24.4 µM (inactive)
COc1cccc(-c2nn3c(-c4ccccn4)nnc3s2)c1	16.1 µM (inactive)
COc1ccc(-c2cc3nc(C)cc(N4CCN(C(=O)c5ccoc5)CC4)n3n2)cc1	> 79 µM (inactive)
NC(=O)COc1ccc2oc(=O)cc(-c3cc4ccccc4o3)c2c1	17.2 µM (inactive)
CCOC(=O)c1ccccc1OCc1cc(/C=N/NC(=O)c2cccnc2)ccc1OC	6.98 µM

Structure (SMILES)	IC50
CC1(C)Oc2ccc3ccc(=O)oc3c2/C(=C/Nc2ccccn2)C1=O	12.4 µM (inactive)
Cc1[nH]c2ccccc2c1/C=N/NC(=O)c1cc(-c2ccccc2)n[nH]1	8.98 µM
CC/C(C)=N\N=C\c1c(O)n(CC)c2cc(C3=NNC(=O)CC3)ccc12	> 79 µM (inactive)
COc1cccc(C(=O)Nc2cccc(-c3nnc(-c4ccco4)o3)c2)c1	12.6 µM (inactive)
O=C/C(=C\Nc1ccccn1)c1nc2cc(Cl)ccc2o1	> 79 µM (inactive)
C=C1C(C)C2C(Cc3ccccc3)NC(=O)C23OC(=O)/C=C/C(O)CCCC(C)C/C=C/C3C1O (stereo not given)	0.95 µM
COc1ccc(C(C(=O)NCc2ccccc2)N(Cc2ccco2)C(=O)c2snc(C(N)=O)c2N)cc1 (stereo not given)	6.17 µM
Cc1nn2c(-c3cccc(NC(=O)c4ccco4)c3)nnc2c2ccccc12	7.77 µM
COc1ccc2o/c(=N/NC(=O)c3cccs3)c(C(N)=O)cc2c1	21.5 µM (inactive)
CC(C)(C)OC(=O)N1CCC[C@H]1c1nnc(SCC(=O)Nc2ccc(Br)cc2)o1	19.8 µM (inactive)
COc1cccc(C(=O)Nc2cc(C)c3c(=O)oc4ccccc4c3n2)c1	> 79 µM (inactive)
COc1cc(/C=C/c2nc3ccccc3c(=O)n2-c2ccccc2O)ccc1O	27.5 µM (inactive)
O=C(/C=C\c1cn(-c2ccccc2)nc1-c1ccc2c(c1)OCCO2)N1CCOCC1	> 79 µM (inactive)
Cc1cccc(NC(=O)c2cc(-c3ccco3)nc3ccccc23)n1	12.2 µM (inactive)
COc1cc(/C=N\NC(=O)c2cccnc2)ccc1OC(=O)c1ccccc1Cl	> 79 µM (inactive)
C[C@H](CO)N1C[C@H](C)[C@@H](CN(C)S(=O)(=O)c2ccc(F)cc2)Oc2ccc(NC(=O)Nc3ccc4c(c3)OCO4)cc2C1=O	48.8 µM (inactive)
O=C(c1ccc(-c2nc3ccccc3s2)o1)N1CCN(c2ccccc2O)CC1	13.2 µM (inactive)
Cc1ccc2cc3c(NC(=O)c4cccnc4)nn(C)c3nc2c1	18.5 µM (inactive)
COc1cc(-c2nnc(-c3cc(-c4ccccc4)nc4ccccc34)o2)cc(OC)c1OC	7.22 µM
Cc1cc(C)c(S(=O)(=O)N2CCN(C(=O)c3cc(=O)[nH]c4ccccc34)CC2)c(C)c1	20 µM (inactive)
COC(=O)c1cc2ccc(OC)cc2c2cc(OC)c(OC)cc12	> 79 µM (inactive)
O=C(Nc1ccccc1)c1nc[nH]c1C(=O)NCCNC(=O)c1[nH]cnc1C(=O)Nc1ccccc1	1.17 µM
CCOc1ccc2ccccc2c1C(=O)N[C@@H]1C(=O)N2[C@@H]1SC(C)(C)[C@@H]2C(=O)O	36.1 µM (inactive)

Structure (SMILES)	IC50
CCc1nc2ccc(C(=O)Nc3cc(-c4ccccc4)ccc3OC)cn2c1N(C)Cc1nccs1	14.1 µM (inactive)
c1ccc(-c2nc(-n3ccnc3)nc(-n3ccnc3)n2)cc1	9.07 µM
COc1cc(NC(=O)c2ccco2)c(C(=O)OCC(=O)c2c[nH]c3ccccc23)cc1OC	6.43 µM
CC(=O)c1ccc(N2CCN(C(=O)C3CCCN(c4ncnc5c4nc4n5CCCCC4)C3)CC2)cc1 (stereo not given)	25.6 µM (inactive)
CCOC(=O)c1ccc(-c2ccc3ncnc(NCc4csc(C)n4)c3c2)o1	> 79 µM (inactive)
O=C(N/N=C/c1ccc2c(c1)OCO2)c1ccc(NC(=O)c2ccccc2Cl)cc1	14.8 µM (inactive)
Cc1nc2ccccc2c2c(N)c3ccccc3n12	32.1 µM (inactive)
COc1cc(C(=O)N/N=C/c2ccc(OC(=O)c3ccccc3)c(OC)c2)ccc1O	14.8 µM (inactive)
CCN(CC)S(=O)(=O)c1ccc(Nc2nc3ccccc3n3nnnc23)cc1	7.9 µM
CCOC(=O)C1CCN(C(=O)c2ccc3c(=O)n4nc(Nc5ccccc5OC)sc4nc3c2)CC1	15.9 µM (inactive)
CCOC(=O)C1=C(C)Nc2ccccc2N=C1NC(=O)c1oc2ccccc2c1COC	6.98 µM
CCC(Oc1ccccc1)C(=O)Nc1ccccc1C(=O)N1CCCCC1 (stereo not given)	36.4 µM (inactive)
COc1ccc(-c2nn(-c3ccccc3)cc2C(=O)Nc2nccs2)cc1	16.4 µM (inactive)
COc1cccc(CN(C)C(=O)C(Cc2ccccc2)NC(=O)c2ccccc2)c1OC (stereo not given)	20.8 µM (inactive)
O=C(CCCN1C(=O)c2cccc3cccc(c23)C1=O)N1CCN(c2ccccc2O)CC1	19.5 µM (inactive)
COc1ccccc1NC(=O)CSc1ccc2nnc(-c3ccc(C)cc3)n2n1	> 79 µM (inactive)
CCOc1cc(/C=C(\C#N)C(=O)Nc2ccc(S(N)(=O)=O)cc2)ccc1OCCN1CCOCC1	9.62 µM
CC(=O)Nc1ccc(NS(=O)(=O)c2cc(-c3n[nH]c(=O)c4ccccc34)ccc2C)cc1	44 µM (inactive)
COc1ccccc1OP(=O)(Nc1cccnc1)Oc1ccccc1OC	8.19 µM
C[C@H](CO)N1C[C@H](C)[C@@H](CN(C)C(=O)Nc2ccc3c(c2)OCO3)Oc2c(NC(=O)Nc3ccc(C(F)(F)F)cc3)cccc2C1=O	> 79 µM (inactive)
COc1cc(NC(=O)c2cc3c(C)nc4ccccc4c3o2)cc(OC)c1OC	11.2 µM (inactive)
COc1cc(-c2cc(NC(C)=O)c3ncc(-c4ccc(C(C)=O)cc4)n3c2)cc(OC)c1OC	7.42 µM
Cc1ccc(NC(=O)c2cc(=O)c3ccccc3o2)cc1S(=O)(=O)N1CCOCC1	29.6 µM (inactive)

Structure (SMILES)	IC50
O=C(NCC(=O)N(Cc1ccccc1)C(C(=O)NC1CCCCC1)c1ccco1)c1ccco1 (stereo not given)	24 µM (inactive)
CC(=O)NCc1ccc(-c2csc(NC(=O)CCc3nc4ccccc4c(=O)[nH]3)n2)s1	28.5 µM (inactive)
COc1cc(-c2cc(NC(C)=O)c3ncc(-c4ccccc4)n3c2)cc(OC)c1OC	> 79 µM (inactive)
COc1cc(-c2cnc3c(NC=O)cc(-c4ccsc4)cn23)cc(OC)c1OC	6.13 µM
Cn1c(=O)n(CCc2ccccc2)c(=O)c2c1nc1n2CCCN1Cc1ccccc1	14.5 µM (inactive)
S=C(Nc1ccc(N2CCOCC2)cc1)Nc1ccc2nc(-c3ccco3)c(-c3ccco3)nc2c1	11.3 µM (inactive)
Cc1cccc(NC(=O)c2nc[nH]c2C(=O)NCC(=O)OCc2ccccc2)c1	> 79 µM (inactive)
O=C(COC(=O)c1ccccc1C(=O)OCC(=O)NCCc1c[nH]c2ccccc12)NCCc1c[nH]c2ccccc12	9.24 µM
O=C(CN1CCN(c2ccccn2)CC1)Nc1ccc([N+](=O)[O-])cc1C(=O)Nc1ccccc1F	12.8 µM (inactive)
COc1ccc(-c2nc(NC(=O)c3ccc(OCC(=O)N4CCOCC4)c(OC)c3)sc2C)cc1	23.7 µM (inactive)
COc1ccc(OC)c(N(CC(=O)Nc2cccnc2)S(=O)(=O)c2ccc(OC)c(OC)c2)c1	32.2 µM (inactive)
COc1ccc(-c2cc(C(=O)Nc3ccccc3N3CCOCC3)c3ccccc3n2)cc1OC	7.58 µM
Cc1ccc(C(=O)Nc2cccc(C(F)(F)F)c2)cc1NC(=O)c1csc(-c2ccncc2)n1	> 79 µM (inactive)
C[C@@H]1CN([C@@H](C)CO)C(=O)c2cc(NC(=O)Nc3ccccc3)ccc2O[C@H]1CN(C)C(=O)Nc1cccc2ccccc12	15 µM (inactive)
COC(=O)c1ccc2c(=O)[nH]c(COC(=O)c3[nH]c(C)c(C(C)=O)c3C)nc2c1	9.12 µM
CNC(=O)COC(=O)/C=C/c1cn(-c2ccccc2)nc1-c1ccc(C)o1	14.6 µM (inactive)
CC(=O)Nc1cc(-c2cccc(NS(C)(=O)=O)c2)cn2c(-c3cccc(C(C)=O)c3)cnc12	16.2 µM (inactive)
COc1cc(/C=C(\C#N)C(=O)Nc2ccccc2)ccc1OCCN1CCOCC1	> 79 µM (inactive)
COc1ccc(-c2nnc(-c3cc(OC)c(OC)c(OC)c3)o2)cc1OC	15.9 µM (inactive)
COc1ccccc1CN(C(=O)CNC(=O)c1ccco1)C(C(=O)NCC1CCCO1)c1ccccc1 (stereo not given)	9.47 µM
CCOC(=O)C1=C(COC(=O)/C=C/c2ccc(F)cc2)NC(=O)NC1C (stereo not given)	18.1 µM (inactive)
